Experimental data reported in patent US12209087B2, “AKT1 modulators” (Alterome Therapeutics, Inc., priority 2022, dated 2025).
pIC50: −log10 of the molar value.

Each molecule was assayed against T1, full length AKT E17K (Homo sapiens, UniProt P31749, E17K) (assay: NanoBRET Target Engagement (TE) Assay). Conditions: competitive displacement of tracer in cells, read-out: AKT1 E17K IC50.
T1 construct: host or cells: HEK-293 (ATCC CRL-1573)
Assay type: cell-based
Summary of the method: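 Compound and tracer incubated 2 h before luminescence at donor 450 nm and acceptor 600 nm, with extracellular signal inhibited. EC50 by sigmoidal variable-slope regression.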

T1 sequence (P31749 whole entry E17K): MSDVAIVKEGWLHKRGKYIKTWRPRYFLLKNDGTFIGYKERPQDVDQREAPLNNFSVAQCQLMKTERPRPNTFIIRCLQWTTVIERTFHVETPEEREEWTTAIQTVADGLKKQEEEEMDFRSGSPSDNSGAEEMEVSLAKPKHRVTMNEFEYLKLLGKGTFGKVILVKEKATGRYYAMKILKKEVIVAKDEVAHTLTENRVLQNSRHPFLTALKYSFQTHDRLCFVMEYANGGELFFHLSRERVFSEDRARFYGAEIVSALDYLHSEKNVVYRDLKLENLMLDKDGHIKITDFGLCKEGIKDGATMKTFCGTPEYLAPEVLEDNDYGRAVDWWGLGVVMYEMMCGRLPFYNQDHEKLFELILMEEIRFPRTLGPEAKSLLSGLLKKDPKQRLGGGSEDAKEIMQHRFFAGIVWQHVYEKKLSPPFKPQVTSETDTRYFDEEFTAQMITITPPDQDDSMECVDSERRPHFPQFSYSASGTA

pIC50 | SMILES
7.22 to 7.82 | N#Cc1cc(N2CCN(Cc3ccc(-n4c(-c5cccnc5N)nc5ccc(-c6cccc(=O)[nH]6)nc54)cc3)CC2)ncn1 [Example 334, 6-(4-(4-(2-(2-Aminopyridin-3-yl)-5-(6-oxo-1,6-dihydropyridin-2-yl)-3H-imidazo[4,5-b]pyridin-3-yl)benzyl)piperazin-1-yl)pyrimidine-4-carbonitrile]
> 7.82 | N#Cc1nccc(NC2CCN(Cc3ccc(-n4c(-c5cccnc5N)nc5ccc(-c6cnoc6)nc54)cc3)CC2)n1 [Example 461, 4-((1-(4-(2-(2-Aminopyridin-3-yl)-5-(isoxazol-4-yl)-3H-imidazo[4,5-b]pyridin-3-yl)benzyl)piperidin-4-yl)amino)pyrimidine-2-carbonitrile]
> 7.82 | N#Cc1nccc(NC2CCN(Cc3ccc(-n4c(-c5cccnc5N)nc5ccc(-c6ccc(F)c(O)c6)nc54)cc3)CC2)n1 [Example 545, 4-((1-(4-(2-(2-Aminopyridin-3-yl)-5-(4-fluoro-3-hydroxyphenyl)-3H-imidazo[4,5-b]pyridin-3-yl)benzyl)piperidin-4-yl)amino)pyrimidine-2-carbonitrile]
7.22 to 7.82 | N#Cc1ccnc(NC2CCN(Cc3ccc(-n4c(-c5cccnc5N)nc5ccc(-c6cccc(Cl)c6)nc54)cc3)CC2)n1 [Example 372, 2-((1-(4-(2-(2-Aminopyridin-3-yl)-5-(3-chlorophenyl)-3H-imidazo[4,5-b]pyridin-3-yl)benzyl)piperidin-4-yl)amino)pyrimidine-4-carbonitrile]
> 7.82 | N#Cc1nccc(NC2CCN(Cc3ccc(-n4c(-c5cccnc5N)nc5ccc(-n6nccn6)nc54)cc3)CC2)n1 [Example 592, 4-((1-(4-(2-(2-Aminopyridin-3-yl)-5-(2H-1,2,3-triazol-2-yl)-3H-imidazo[4,5-b]pyridin-3-yl)benzyl)piperidin-4-yl)amino)pyrimidine-2-carbonitrile]
7.22 to 7.82 | [2H]C1(Nc2ccnc(C#N)n2)CCN(Cc2ccc(-n3c(-c4cccnc4N)nc4cccnc43)cc2)CC1 [Example 503, 4-((1-(4-(2-(2-Aminopyridin-3-yl)-3H-imidazo[4,5-b]pyridin-3-yl)benzyl)piperidin-4-yl-4-d)amino)pyrimidine-2-carbonitrile]
6.22 to 7.22 | N#Cc1nccc(NC2CCN(Cc3ccc(-n4c(-c5cccnc5)nc5ccc(-c6ccc(F)cn6)nc54)cc3)CC2)n1 [Example 575, 4-((1-(4-(5-(5-Fluoropyridin-2-yl)-2-(pyridin-3-yl)-3H-imidazo[4,5-b]pyridin-3-yl)benzyl)piperidin-4-yl)amino)pyrimidine-2-carbonitrile]
> 7.82 | N#Cc1nccc(NC2CCN(Cc3ccc(-n4c(-c5cccnc5N)nc5ccc(-c6cocn6)nc54)cc3)CC2)n1 [Example 594, 4-((1-(4-(2-(2-Aminopyridin-3-yl)-5-(oxazol-4-yl)-3H-imidazo[4,5-b]pyridin-3-yl)benzyl)piperidin-4-yl)amino)pyrimidine-2-carbonitrile]
> 7.82 | N#Cc1nccc(NC2CCN(Cc3ccc(-n4c(-c5cccnc5N)nc5ccc(-c6ccc(F)cn6)cc54)cc3)CC2)n1 [Example 602, 4-((1-(4-(2-(2-Aminopyridin-3-yl)-6-(5-fluoropyridin-2-yl)-1H-benzo[d]imidazol-1-yl)benzyl)piperidin-4-yl)amino)pyrimidine-2-carbonitrile]
> 7.82 | N#Cc1nccc(NC2CCN(Cc3ccc(-n4c(-c5cccnc5N)nc5ccc(-c6ncc(F)cn6)nc54)cc3)CC2)n1 [Example 603, 4-((1-(4-(2-(2-Aminopyridin-3-yl)-5-(5-fluoropyrimidin-2-yl)-3H-imidazo[4,5-b]pyridin-3-yl)benzyl)piperidin-4-yl)amino)pyrimidine-2-carbonitrile]
> 7.82 | Cn1ncc(-c2ccc3nc(-c4nccnc4N)n(-c4ccc(CN5CCC(Nc6ccnc(C#N)n6)CC5)cc4)c3n2)n1 [Example 562, 4-((1-(4-(2-(3-Aminopyrazin-2-yl)-5-(2-methyl-2H-1,2,3-triazol-4-yl)-3H-imidazo[4,5-b]pyridin-3-yl)benzyl)piperidin-4-yl)amino)pyrimidine-2-carbonitrile]
> 7.82 | Cc1cnn(-c2ccc3nc(-c4cccnc4N)n(-c4ccc(CN5CCC(Nc6ccnc(C#N)n6)CC5)cc4)c3n2)n1 [Example 568, 4-((1-(4-(2-(2-Aminopyridin-3-yl)-5-(4-methyl-2H-1,2,3-triazol-2-yl)-3H-imidazo[4,5-b]pyridin-3-yl)benzyl)piperidin-4-yl)amino)pyrimidine-2-carbonitrile]
> 7.82 | N#Cc1ccc(-c2ccc3nc(-c4cccnc4N)n(-c4ccc(CN5CCC(Nc6ccnc(C#N)n6)CC5)cc4)c3n2)cc1 [Example 320, 4-((1-(4-(2-(2-Aminopyridin-3-yl)-5-(4-cyanophenyl)-3H-imidazo[4,5-b]pyridin-3-yl)benzyl)piperidin-4-yl)amino)pyrimidine-2-carbonitrile]
6.22 to 7.22 | CN1CCN(c2ccc3nc(-c4cccnc4N)n(-c4ccc(CN5CCC(Nc6ccnc(C#N)n6)CC5)cc4)c3n2)CCC1=O [Example 346, 4-((1-(4-(2-(2-Aminopyridin-3-yl)-5-(4-methyl-5-oxo-1,4-diazepan-1-yl)-3H-imidazo[4,5-b]pyridin-3-yl)benzyl)piperidin-4-yl)amino)pyrimidine-2-carbonitrile]

Same assay, conditions: competitive tracer displacement in living cells, read-out: AKT1 E17K IC50

pIC50 | SMILES
7.22 to 7.82 | N#Cc1ccnc(NC2CCN(Cc3ccc(-n4c(-c5cccnc5N)nc5ccc(-c6ccccc6Cl)nc54)cc3)CC2)n1 [Example 306, 2-((1-(4-(2-(2-Aminopyridin-3-yl)-5-(2-chlorophenyl)-3H-imidazo[4,5-b]pyridin-3-yl)benzyl)piperidin-4-yl)amino)pyrimidine-4-carbonitrile]
6.22 to 7.22 | C[C@@H]1CN(Cc2ccc(-n3c(-c4cccnc4N)nc4ccc(-c5ccccc5)nc43)cc2)C[C@@H](C)N1c1cc(C#N)ncn1 [Example 197, 6-((2R,6R)-4-(4-(2-(2-aminopyridin-3-yl)-5-phenyl-3H-imidazo[4,5-b]pyridin-3-yl)benzyl)-2,6-dimethylpiperazin-1-yl)pyrimidine-4-carbonitrile]
> 7.82 | N#Cc1ncnc(N2CC[C@]3(CCN(Cc4ccc(-n5c(-c6cccnc6N)nc6ccc(-c7ccccc7)nc65)cc4)C3)C2)n1 [Example 269, (S)-4-(7-(4-(2-(2-Aminopyridin-3-yl)-5-phenyl-3H-imidazo[4,5-b]pyridin-3-yl)benzyl)-2,7-diazaspiro[4.4]nonan-2-yl)-1,3,5-triazine-2-carbonitrile]
5.00 to 6.22 | N#Cc1ccnc(OC2CCN(Cc3ccc(-n4c(-c5cccnc5N)nc5cccnc54)cc3)CC2)c1 [Example 5, 2-((1-(4-(2-(2-aminopyridin-3-yl)-3H-imidazo[4,5-b]pyridin-3-yl)benzyl)piperidin-4-yl)oxy)isonicotinonitrile]
> 7.82 | N#Cc1ncnc(N2CCN(Cc3ccc(-n4c(-c5cccnc5N)nc5ccc(N6CCOCC6)nc54)cc3)CC2)n1 [Example 292, 4-(4-(4-(2-(2-Aminopyridin-3-yl)-5-morpholino-3H-imidazo[4,5-b]pyridin-3-yl)benzyl)piperazin-1-yl)-1,3,5-triazine-2-carbonitrile]
6.22 to 7.22 | N#Cc1ccnc(NC2CCN(Cc3ccc(-n4c(-c5cccnc5N)nc5cccnc54)cc3)CC2)n1 [Example 77, 2-((1-(4-(2-(2-Aminopyridin-3-yl)-3H-imidazo[4,5-b]pyridin-3-yl)benzyl)piperidin-4-yl)amino)pyrimidine-4-carbonitrile]
> 7.82 | N#Cc1ncnc(N2CCC3(CC2)CN(Cc2ccc(-n4c(-c5cccnc5N)nc5ccc(-c6ccccc6)nc54)cc2)C3)n1 [Example 268, 4-(2-(4-(2-(2-Aminopyridin-3-yl)-5-phenyl-3H-imidazo[4,5-b]pyridin-3-yl)benzyl)-2,7-diazaspiro[3.5]nonan-7-yl)-1,3,5-triazine-2-carbonitrile]
6.22 to 7.22 | N#Cc1nc2c(C(=O)NC3CCN(Cc4ccc(-n5c(-c6cccnc6N)nc6ccc(-c7ccccc7)nc65)cc4)CC3)cc(F)cc2s1 [Example 183, N-(1-(4-(2-(2-aminopyridin-3-yl)-5-phenyl-3H-imidazo[4,5-b]pyridin-3-yl)benzyl)piperidin-4-yl)-2-cyano-6-fluorobenzo[d]thiazole-4-carboxamide]
7.22 to 7.82 | N#Cc1cc(N2CCN(Cc3ccc(-n4c(-c5cccnc5N)nc5ccc(-c6ccccc6)nc54)cc3)CC23CC3)ncn1 [Example 200, 6-(7-(4-(2-(2-Aminopyridin-3-yl)-5-phenyl-3H-imidazo[4,5-b]pyridin-3-yl)benzyl)-4,7-diazaspiro[2.5]octan-4-yl)pyrimidine-4-carbonitrile]
6.22 to 7.22 | N#Cc1cc(C(=O)NCc2ccc(-n3c(-c4cccnc4N)nc4cc(-c5ccccc5)cnc43)cc2)ccn1 [Example 169, N-(4-(2-(2-Aminopyridin-3-yl)-6-phenyl-3H-imidazo[4,5-b]pyridin-3-yl)benzyl)-2-cyanoisonicotinamide]
5.00 to 6.22 | N#Cc1cccnc1C(=O)N1CCN(Cc2ccc(-n3c(-c4cccnc4N)nc4ccc(-c5ccccc5)nc43)cc2)CC1 [Example 146, 2-(4-(4-(2-(2-Aminopyridin-3-yl)-5-phenyl-3H-imidazo[4,5-b]pyridin-3-yl)benzyl)piperazine-1-carbonyl)nicotinonitrile]
7.22 to 7.82 | C[C@H]1CN(Cc2ccc(-n3c(-c4cccnc4N)nc4ccc(-c5ccccc5)nc43)cc2)CCN1c1ncnc(C#N)n1 [Example 274, (S)-4-(4-(4-(2-(2-Aminopyridin-3-yl)-5-phenyl-3H-imidazo[4,5-b]pyridin-3-yl)benzyl)-2-methylpiperazin-1-yl)-1,3,5-triazine-2-carbonitrile]
> 7.82 | N#Cc1cccc(-c2ccc3nc(-c4cccnc4N)n(-c4ccc(CN5CCC(Nc6ccnc(C#N)n6)CC5)cc4)c3n2)c1 [Example 265, 4-((1-(4-(2-(2-Aminopyridin-3-yl)-5-(3-cyanophenyl)-3H-imidazo[4,5-b]pyridin-3-yl)benzyl)piperidin-4-yl)amino)pyrimidine-2-carbonitrile]
